# Results reported in patent US7628765B2, “Increasing retrievable cells from a breast duct” (Cytyc Corporation, priority 2001, dated 2009).
# Tested on: breast ducts of live rabbits
# Experiment: Ductal fluid collection after intraductal injection of mannitol solution in live rabbit
# Format: in vivo, New Zealand rabbit
# Conditions: for recovery: out-flow liquid checked about an hour later
# Protocol: The objective of these experiments was to test the effects of the introduction of a solution containing mannitol on the secretion of fluid from the breast ducts of live rabbits. New Zealand rabbit #3242, female, from Kraelik Farm in CA weighing 4.1 kg was used. The rabbit was anesthetized by injection of 200 mg of ketamine and 40 mg of Zylazine. A second injection of 100 mg of ketamine and 20 mg of xylazine was made 2 hours later to maintain the rabbit in a deep plane of anesthesia. The thorax and abdomen of the rabbit was shaved to expose the breasts and nipples.
# A single lumen blue color catheter (O.D. 0.23″ ID 0.017; O.D. at the tip 0.011″-0.012″) was inserted into a duct in each nipple. Three nipples were tested, and 2 ducts per nipple were accessed with a catheter. The nipples were identified A, B, and C.
# A duct on nipple A was injected with 0.20 ml of a 12.5% solution of D-Mannitol in H2O (available from Sigma Chemicals, St. Louis, Mo. cat# M-9546 lot 6710402: C6H14O6 FW 182.2) with a single catheter. The control duct on nipple A was injected with 0.20 ml of phosphate buffered saline (PBS). A microfuge tube was attached to the end of each catheter to collect out flow liquid. Ten minutes later 0.2 ml of a 12.5% solution of D-Mannitol in H2O was injected into the first duct and the second duct was injected with 0.20 ml of phosphate buffered saline, for a total volume injected in each duct of 0.40 ml.
# A duct on nipple B was injected with 0.5 ml of a 12.5% solution of D-Mannitol in H2O with a single catheter. The control duct on nipple B was injected with 0.50 ml of phosphate buffered saline (PBS). A microfuge tube was attached to the end of each catheter to collect out-flow liquid.
# A duct on nipple C was injected with 0.7 ml of a 12.5% solution of D-Mannitol in H2O with a single catheter. The control duct on nipple C was injected with 0.70 ml of phosphate buffered saline (PBS). A microfuge tube was attached to the end of each catheter to collect out flow liquid.
# About an hour after the fluid containing mannitol or PBS was injected into the ducts via the catheters, the microfuge tubes were checked for whether any fluid was returned.
compound,measurement,setting,value
"OC[C@@H](O)[C@@H](O)[C@H](O)[C@H](O)CO [mannitol, D-Mannitol]",ducts from which fluid can be collected,"ducts injected with 12.5% mannitol solution, 0.4-0.7 ml, PBS control 1 out of 3",three out of three
same,recovery,"nipple A, duct A1, 0.4 ml total of 12.5% solution (2 x 0.2 ml, 10 min apart) injected intraductally",310 ul liquid
same,recovery,"nipple B, duct B1, 0.5 ml of 12.5% solution injected intraductally",490 ul liquid
same,recovery,"nipple C, duct C1, 0.7 ml of 12.5% solution injected intraductally",280 ul liquid
